Measured values: patent publication US20230172915A1, “DHODH INHIBITOR FOR THE TREATMENT OF COVID-19” (priority 2020, published 2023)
pEC50: −log10 of the molar value. Where two headings read alike, the source gives them in different places.

Experiments:
[1] = tested on: Respiratory syncytial virus; assay: Antiviral activity, Respiratory syncytial virus (Hep2 cells); type: cell-based; settings: human respiratory syncytial virus, HEp-2
[2] = tested on: PBMCs plus venular endothelial cells (sAg); assay: BioMAP profiling, SAg system; type: cell-based; settings: for inhibition at 0.01 µM: 10 nM; for inhibition at 0.1 µM: 100 nM
Experimental: The effect of PTC299 on cytokine production was assessed using BioMAP profiling (BioSeek, now part of Eurofins). The BioMAP system is comprised of complex co-cultures of primary peripheral blood mononuclear cells (PBMCs) with other cell types including B cells, fibroblasts, and endothelial cells allowing for the measurement of physiologically relevant biomarker readouts of the activity of a compound. Using this system, cytokine production was evaluated in the following models of primary cell disease models: • Peripheral blood mononuclear cells (PBMCs) plus venular endothelial cells (sAg) • PBMCs plus B cells (BT) • PBMCs plus fibroblasts (HDFSAg) • TH2 cells plus venular endothelial cells (/TH2).
Abbreviations in Table 4: BCR, B-cell receptor; BT System, co-culture of CD19+ B cells and PBMC that utilizes BCR stimulation and sub-mitogenic TCR stimulation; HDFSAg system, co-culture of human primary dermal fibroblasts and PBMC that is stimulated with sub-mitogenic TCR levels; IL, interleukin; PBMC, Peripheral Blood Mononuclear Cell; SAg system, co-culture of endothelial cells and PBMC stimulated with mitogenic levels of TCR ligands; TCR, T-cell receptor; /TH2 system, co-culture of endothelial cells and Th2 blasts stimulated with TCR ligands and cytokines; Th2, T helper type 2; VEGF, vascular endothelial growth factor.

[3] = Single- and repeat-dose toxicology studies in rats
[4] = Cytotoxicity in Vero cells by intracellular ATP; settings: African green monkey
[5] = Study PTC299-ONC-007-NF2: PTC299 plasma level; settings: human, oral, 100 mg BID
[6] = tested on: DHODH; assay: Study PTC299-ONC-007-NF2: serum DHO and VEGF in neurofibromatosis type 2 patients; settings: 100 mg BID
[7] = tested on: primary acute myeloid leukemia (AML) blast cells; assay: Primary AML blast cell assay with and without uridine; type: cell-based; settings: uridine 0, 3, 10, 30, or 100 µM
Experimental: FIG. 5 is a plot showing the fraction of total blasts relative to DMSO control vs PTC299 concentration in nM, from an assay of the ability of PTC299 to suppress DHODH activity in the presence of increasing concentrations of uridine (0, 3, 10, 30, or 100 µM) .
The ability of PTC299 to inhibit DHODH was further tested using primary acute myeloid leukemia (AML) blast cells that are reliant upon the de novo pyrimidine nucleotide pathway to obtain pyrimidine nucleotides.

[8] = Relative bioavailability tablet versus capsule; settings: in vivo, oral; administered with food; read-out: relative bioavailability of tablet formulation compared with the capsule
Experimental: The rationale for this dosing is based on the following: • The dosing regimen utilizes results from PTC’s extensive clinical, safety, and clinical pharmacology experience with the capsule formulation of PTC299 that was used in prior solid tumor clinical studies. • The tablet formulation has approximately 40% relative bioavailability compared with the capsule when administered with food. • The 200 mg BID dosing for 7 days have been tested previously in healthy volunteers in study PTC299-ONC-002-HV with no serious adverse events. […] The dosing of 200 mg BID for the first 7 days will raise the exposure of the drug quickly to accommodate the need for rapid onset of PTC299 activity..

[9] = Phase 1 multiple dose study PTC299-ONC-002-HV in healthy volunteers (PK, safety); type: in vivo, human; settings: for AUC: read-out: AUCO-4
Experimental: The PK of the 200 mg BID dosed for 7 days and 50 mg for 7 days was evaluated in a phase 1, escalating, multiple dose, safety, tolerability, and PK study, PTC299-ONC-002-HV (N=32; n=24 received PTC299 and 8 received placebo).
Study PTC299-ONC-002-HV had 2 stages; in Stage 1, doses ranged from 0.3 to 1.2 mg/kg BID, and in Stage 2, a 1.6 mg/kg TID dose was administered. Patients received the capsule formulation of PTC299 for 7 days in both stages. Dose of 200 mg tablet is approximately 1.2 mg/kg capsule whereas 50 mg tablet is approximately 0.3 mg/kg of capsule formulation.

[10] = Single- and repeat-dose toxicology studies in dogs
[11] = AML phase 1b study PTC299-HEM-001-LEU, PK; type: in vivo, human; settings: 80 mg QD tablet loading dose for 7 days followed by 40 mg maintenance dose (cohort 2), AML patients
Experimental: It was anticipated that elimination would not be saturated with 50 mg tablet QD after 7 days of 200 mg tablet BID dosing. This is supported by results from the ongoing AML open-label, non-randomized, phase 1b study, PTC299-HEM-001-LEU.

[12] = tested on: Hepatitis C virus (replicon); assay: Antiviral activity, Hepatitis C virus replicon (Huh7 cells); type: cell-based; settings: Huh-7
[13] = Bacterial mutagenicity (Ames) test
[14] = human, plasma, oral, 0.3 mg/kg, 0.3 mg/kg BID, Day 1, capsule
[15] = human, plasma, oral, 0.3 mg/kg, 0.3 mg/kg BID, Day 7, capsule
[16] = human, plasma, oral, 0.6 mg/kg, 0.6 mg/kg BID, Day 1, capsule
[17] = human, plasma, oral, 0.6 mg/kg, 0.6 mg/kg BID, Day 7, capsule
[18] = human, plasma, oral, 1.2 mg/kg, 1.2 mg/kg BID, Day 1, capsule
[19] = human, plasma, oral, 1.2 mg/kg, 1.2 mg/kg BID, Day 7, capsule
[20] = human, plasma, oral, 1.6 mg/kg, 1.6 mg/kg TID, Day 1, capsule
[21] = human, plasma, oral, 1.6 mg/kg, 1.6 mg/kg TID, Day 7, capsule

`COc1ccc([C@H]2c3[nH]c4ccc(Cl)cc4c3CCN2C(=O)Oc2ccc(Cl)cc2)cc1` [PTC299, 4-chlorophenyl (S)-6-chloro-1-(4-methoxyphenyl)-1,3,4,9-tetrahydro-2H-pyrido[3,4-b]indole-2-carboxylate] showed a pEC50 [1] of 8.40, an inhibition at 0.01 µM ([2]; read-out: % Inhibition IL-8) of 27% and an inhibition at 0.01 µM ([2]; read-out: % Inhibition MCP-1) of 31%. It also gave an inhibition at 0.1 µM ([2]; read-out: % Inhibition CD40) of 29%, an inhibition at 0.1 µM ([2]; read-out: % Inhibition IL-8) of 29% and an inhibition at 0.1 µM ([2]; read-out: % Inhibition MCP-1) of 45%. For the same compound, the inhibition at 0.1 µM ([2]; read-out: % Inhibition Proliferation) was 23%, the “alanine aminotransferase, aspartate aminotransferase, and total bilirubin” value ([3]; rats dosed through 28 days) was “no increases” and the “histopathologic findings in the liver” value ([3]; rats dosed through 28 days) was “no histopathologic findings in the liver”. The PTC299-related mortality ([3]; rats, toxicology studies) was “No PTC299-related mortality was observed”, the CC50 at 48 h [4] was > 10000 nM and the concentration at 4 h [5] was 1900 ng/mL. The “serum VEGF levels” value ([6]; 8 weeks versus pre-dose) was “significantly reduced after 8 weeks of treatment”, the “serum DHO levels” value ([6]; post-dose versus pre-dose) was “elevated at 8 or 16 weeks” and the “effect of exogenous uridine on PTC299-dependent cytotoxicity” value [7] was “reversal of the effects of PTC299-dependent cytotoxicity by the addition of exogenous uridine”. The bioavailability [8] was ~40%, the Tl/2 ([9]; 0.3 mg/kg BID, Day 7, capsule) was 164 h and the Tmax ([9]; 0.6 mg/kg BID, Day 1, capsule) was 3.0 h. It also gave a Tl/2 ([9]; 0.6 mg/kg BID, Day 7, capsule) of 210 h, a Tl/2 ([9]; 1.2 mg/kg BID, Day 7, capsule) of 228 h and a Tl/2 ([9]; 1.6 mg/kg TID, Day 7, capsule) of 225 h. The “SAEs during study PTC299-ONC-002-HV” value ([9]; healthy volunteers, 7 days, 0.3 to 1.2 mg/kg BID and 1.6 mg/kg TID) was “no SAEs occurred”, the Cmax [9, 14] was 280 ng/mL and the AUC [9, 14] was 4310 ng·h/mL. For the same compound, the Tmax ([9]; human, plasma, oral, 0.3 mg/kg, 0.3 mg/kg BID, Day 1, capsule, read-out: Tmax) was 4 h, the Cmax [9, 15] was 510 ng/mL and the AUC [9, 15] was 8440 ng·h/mL. For the same compound, the Tmax ([9]; human, plasma, oral, 0.3 mg/kg, 0.3 mg/kg BID, Day 7, capsule, read-out: Tmax) was 3.5 h, the Cmax [9, 16] was 710 ng/mL and the AUC [9, 16] was 10100 ng·h/mL. The Cmax [9, 17] was 1110 ng/mL, the AUC [9, 17] was 18600 ng·h/mL and the Tmax ([9]; human, plasma, oral, 0.6 mg/kg, 0.6 mg/kg BID, Day 7, capsule, read-out: Tmax) was 4 h. It also gave a Cmax [9, 18] of 1140 ng/mL, an AUC [9, 18] of 18000 ng·h/mL and a Tmax ([9]; human, plasma, oral, 1.2 mg/kg, 1.2 mg/kg BID, Day 1, capsule, read-out: Tmax) of 3.5 h. For the same compound, the Cmax [9, 19] was 2110 ng/mL, the AUC [9, 19] was ~32900 ng·h/mL and the Tmax ([9]; human, plasma, oral, 1.2 mg/kg, 1.2 mg/kg BID, Day 7, capsule, read-out: Tmax) was 4 h. For the same compound, the Cmax [9, 20] was 1670 ng/mL, the AUC [9, 20] was 37100 ng·h/mL and the Cmax [9, 21] was 3530 ng/mL. The AUC [9, 21] was 78600 ng·h/mL, the “alanine aminotransferase, aspartate aminotransferase, and total bilirubin” value ([10]; dogs dosed through 28 days) was “no increases” and the “histopathologic findings in the liver” value ([10]; dogs dosed through 28 days) was “no histopathologic findings in the liver”. For the same compound, the PTC299-related mortality ([10]; dogs, toxicology studies) was “No PTC299-related mortality was observed”, the “time to steady state” value [11] was ~15 days and the pEC50 [12] was 7.44. For the same compound, the “bacterial mutagenicity (Ames) test” value [13] was “negative”.
